Laboratory results as given in PMC2854128, “A Target-Based High Throughput Screen Yields Trypanosoma brucei Hexokinase Small Molecule Inhibitors with Antiparasitic Activity” (PLoS Neglected Tropical Diseases, 2010).
Several values for one entry are separate records, joined by “and”; a condition that tells them apart may be missing. Equal entries are not always repeated. Where two headings read alike, the source gives them in different places.

Columns and labels:
[1] = cited from earlier work
TbHK1 [2] = molecular target: T1, TbHK1 (Trypanosoma brucei brucei, UniProt Q38C42); experiment: TbHK1 coupled enzyme HTS assay (G6PDH coupled, bacterially expressed rTbHK1); assay type: biochemical; conditions: for Fold less potent upon resupply (TbHK1 IC50 versus cherry-picked compound): resupplied versus cherry-picked compound
T1 sequence (Q38C42 entry or part of it): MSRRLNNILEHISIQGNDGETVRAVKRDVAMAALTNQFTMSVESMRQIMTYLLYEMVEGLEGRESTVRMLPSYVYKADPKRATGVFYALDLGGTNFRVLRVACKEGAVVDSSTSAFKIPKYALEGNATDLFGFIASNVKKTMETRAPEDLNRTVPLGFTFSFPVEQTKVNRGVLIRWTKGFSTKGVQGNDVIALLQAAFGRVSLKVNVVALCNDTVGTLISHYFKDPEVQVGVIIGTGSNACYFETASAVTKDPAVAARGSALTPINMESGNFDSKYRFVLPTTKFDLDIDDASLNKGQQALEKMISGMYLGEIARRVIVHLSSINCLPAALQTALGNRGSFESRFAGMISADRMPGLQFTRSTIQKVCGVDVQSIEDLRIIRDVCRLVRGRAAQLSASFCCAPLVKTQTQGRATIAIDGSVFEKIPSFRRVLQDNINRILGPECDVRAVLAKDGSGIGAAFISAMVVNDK
Protocol: For purification of bacterially expressed TbHK1 (rTbHK1), a previously described protocol was modified to increase yield. Briefly, a starter culture of E. coli M15(pREP) harboring pQE30 (Qiagen, Valencia, CA) with the TbHK1 gene cloned in frame of a 6-His tagging sequence was grown in ECPM1 [9] and then inoculated into a 5 L bioreactor (Biostat B, B. Braun Biotech International, Allentown, PA) and grown at 37°C. At OD600 between 3–5, the culture was induced with IPTG (0.8 mM), grown without supplement O2 (37°C, 16 hr), and cells collected by centrifugation (5000×g, 20 min, 4°C). The pellet was resuspended in lysis buffer (50 mM NaPO4, pH 8.1, 5 mM glucose, 150 mM NaCl, and 0.1% Tween) and lysed by using a cell disruptor (Constant Cell Disruption Systems, Sanford, NC). The resulting supernatant was applied (5 ml/min) to a 50 ml ProBind column (Invitrogen, Eugene, OR) on a FPLC (GE Lifesciences, Piscataway, NJ) and protein eluted by gradient (5 to 250 mM imidazole) in lysis buffer. Fractions were screened using HK activity assays and Western blotting and those containing rTbHK1 were pooled, concentrated, and applied to a HiTrap SP HP column (GE Lifesciences, Piscataway, NJ).
TbHK1 assays were an adaptation of a coupled enzyme HK assay to a 384-well format, [10]. Briefly, test and control compounds (30 µM in 15 µL volume) were added to a 384 well black, opaque microtiter plate using a Velocity 11 V-prep (Santa Clara, CA) for a final test compound concentration of 10 µM. […] The 45 µL reaction mixture was incubated at RT for 2 hr and then quenched with 5 µL EDTA (500 mM). The resulting signal, which remained stable for up to 5 hr after addition of stop reagent, was collected on a Molecular Devices SpectraMax M5 (absorbance at OD340)(Sunnyvale, CA).

[3] = test system: cellular G6P levels in BSF parasites; experiment: Cellular G6P levels in BSF parasites grown with compound; assay type: cell-based, Trypanosoma brucei
[4] = test system: BSF T. brucei parasites (cell line 90-13, a 427 strain); experiment: T. brucei BSF viability assay (CellTiter Blue); assay type: cell-based, Trypanosoma brucei; conditions: for EC50: Trypanosoma brucei; for Toxicity to BSF at 10 µM: cell density after 72 hr
Protocol: CellTiter Blue (Promega, Madison WI) was added (20 µl) and the plates incubated an additional 3 hr under standard culture conditions.

TbHK1 [5] = molecular target: T1, TbHK1; experiment: Kinetic analysis of TbHK1 inhibition with respect to ATP (Lineweaver-Burk); assay type: biochemical
Protocol: (§1) Parasite lysates from BSF parasites were prepared by incubation (5 min on ice) of 1.5×10^7 cells in lysis buffer (0.1 M TEA, pH 7.4, and 0.1% Triton X-100) supplemented with 1 mM PMSF, 5 µg/ml leupeptin, and 100 µg/ml TLCK. In triplicate, cell equivalents (2×10^5) were incubated with increasing concentrations of inhibitor for 15 minutes at RT prior to initiation of the coupled reaction. In short, the 200 µl reactions included 50 mM TEA, pH 7.4, 33 mM MgCl2, 20 mM glucose, 5.25 mM ATP, 0.75 mM NADP, and 0.1 units of G6PDH, with kinetic analyses performed using KaleidaGraph 4.1 (Synergy Software, Reading, PA).
Assays were performed as described for cell lystates (see Materials and Methods) with ATP concentrations varied.

[6] = molecular target: T. brucei lysate-derived TbHK1 (Trypanosoma brucei brucei, UniProt Q38C42); experiment: Inhibition assay of lysate-derived TbHK; assay type: biochemical; conditions: read-out: IC50 against T. brucei lysate-derived TbHK1 enzymatic activity; 2×10^5 BSF cell equivalents, 15 min preincubation at RT
Chain of T. brucei lysate-derived TbHK1 (Q38C42 entry or part of it): as above
Protocol: as §1

Leishmania promastigotes = experiment: Leishmania promastigote specificity assay; assay type: cell-based, L. major; conditions: 44 h
Protocol: Cell-based specificity assays were performed as previously described. Briefly, mammalian cell line and Leishmania promastigote assays were performed in final volumes of 25 µL using our previously described 384-well microtiter format. All mammalian cell lines were cultured and maintained in complete growth medium preparations according to ATCC specifications (ATCC, Manassas, VA). Leishmania promastigotes were cultured as previously described. […] Vehicle and positive controls were 1% and 10% DMSO, respectively. For mammalian cells, assay plates were incubated for 44–46 h at 37°C in the presence of 5% CO2 and for the Leishmania promastigotes, assay plates were incubated for 44 h at 28°C with 5% CO2. Five µL of CellTiter Blue reagent was added to each assay plate well and incubated for 2–4 h at 37°C with 5% CO2. Data were captured on a Molecular Devices SpectraMax M5 (excitation A560; emission A590).

[7] = molecular target: T2, human HK 4 (human glucokinase, hGlk) (Homo sapiens, UniProt P35557); experiment: Specificity assay against human HK 4 (human glucokinase, hGlk); assay type: biochemical; conditions: for inhibition at 10 µM: read-out: % Inhibition of hGlck (10 µM)
T2 construct: His tag (from pQE30); made in house; host or cells: E. coli M15 (pREP)
T2 sequence (P35557 1-465): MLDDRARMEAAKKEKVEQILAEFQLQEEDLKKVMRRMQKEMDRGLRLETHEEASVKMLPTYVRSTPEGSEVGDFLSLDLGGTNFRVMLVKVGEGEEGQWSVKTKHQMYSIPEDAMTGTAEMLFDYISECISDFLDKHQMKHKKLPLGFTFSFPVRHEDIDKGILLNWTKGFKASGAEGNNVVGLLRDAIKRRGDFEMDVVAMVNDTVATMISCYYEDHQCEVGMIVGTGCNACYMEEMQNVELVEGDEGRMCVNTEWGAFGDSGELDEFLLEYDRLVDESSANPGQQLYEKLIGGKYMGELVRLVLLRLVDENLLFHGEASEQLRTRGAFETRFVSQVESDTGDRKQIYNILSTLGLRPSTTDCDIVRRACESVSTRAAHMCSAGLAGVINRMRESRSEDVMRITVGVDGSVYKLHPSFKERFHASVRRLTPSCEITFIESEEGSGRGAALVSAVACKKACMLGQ
Protocol: Additional specificity assays were performed using human HK 4 (human glucokinase, hGlk, GenBank accession no. BC001890) that was expressed from a cloned cDNA (OPEN Biosystems, Huntsville, AL) in pQE30.

[8] = test system: PF T. brucei parasites (29-13, a 427 strain); experiment: Procyclic form (PF) parasite growth assay; assay type: cell-based; conditions: Trypanosoma brucei, A-427, 48 h, read-out: % PF Growth Inhibition (10 µM)
Protocol: Plates were then incubated for 1 hr under standard culture conditions. Fluorescence of samples was then characterized as above.

TbHK1 [9] = molecular target: T1, TbHK1; parameters: method as in Lyda and Morris, unpublished; conditions: previously identified inhibitor; ref Lyda and Morris, unpublished; cited from earlier work
[10] = resupplied compound, bacterially expressed TbHK1, read-out: IC50 (µM) Resupply
[11] = A-427, bloodstream form parasites, 3 days (72 hr), read-out: BSF EC50
[12] = promastigotes, read-out: L. major EC50
[13] = procyclic form parasites, 10 µM, 2 days
[14] = A-427, 72 h, read-out: BSF EC50 (µM)

SMILES | IC50 (TbHK1 [2]; [10]) [µM] | EC50 [4, 11] [µM] | EC50 (Leishmania promastigotes; [12]) [µM] | inhibition at 10 µM ([7]; 10 µM compound) [%] | inhibition at 10 µM [8, 13] [%] | Toxicity to BSF at 10 µM [4] | other results
O=c1c2ccccc2[se]n1-c1ccccc1 [Ebselen, 2-phenyl-1,2-benzisoselenazol-3(2H)-one, reference compound] | 0.05 ± 0.03 | 2.9 ± 0.28 | 4.1 ± 0.4 | 97.8 ± 0.1 | 51 ± 0.16 |  | Brain levels as percent of plasma levels [1]: 21%; Serum values ([1]; single oral dose (100 mg/kg)): 4 to 5 µM; Reduction in cellular G6P ([3]; 1 hour, 10 times the EC50 (30 µM ebselen, 1 µM SID 17387000), versus untreated parasites): 56%; Reduction in cellular G6P ([3]; 4 hours, 10 times the EC50 (30 µM ebselen, 1 µM SID 17387000), versus untreated parasites): 70%; Ki (TbHK1 [5]): 6.13 µM; Nature of TbHK1 inhibition (TbHK1 [5]; with respect to ATP): mixed inhibitors; IC50 [6]: 0.43 ± 0.02 µM
CCOC(=O)Cc1csc(-n2sc3ccccc3c2=O)n1 [SID 3716597] | 9.3 ± 0.3 | > 10 | > 12.5 | 7.8 ± 7.1 | 27 ± 0.08 | not toxic | 
CCCCCCCCCCCNC(=O)c1ccoc1C [SID 14728414] | 41.7 ± 3 | > 10 | > 12.5 | 1.9 ± 7 | 0 | not toxic | Fold less potent upon resupply (TbHK1 IC50 versus cherry-picked compound) (TbHK1 [2]): 6.6 fold; % Inhibition of hGlck (10 µM) ([7]; 10 µM compound): minimal impact on the enzyme
O=C(Cn1sc2ccccc2c1=O)NC12CC3CC(CC(C3)C1)C2 [SID 16952891] | 2.6 ± 0.2 | 0.3 ± 0.079 | > 12.5 | 44.9 ± 9.9 | 47 ± 0.15 |  | 
COC1=C/C(=C/C(C#N)=C2/NC3=C(CCCC3)S2)C=CC1=O [SID 17386310] | 33.6 ± 10.2 | 0.038 ± 0.0038 | 2.6 ± 0.1 | 70.3 ± 3.6 | 50 ± 0.15 |  | Fold less potent upon resupply (TbHK1 IC50 versus cherry-picked compound) (TbHK1 [2]): 7.5 fold; % Inhibition of hGlck (10 µM) ([7]; 10 µM compound): more potent inhibitor
O=c1c2ccccc2sn1-c1ccccc1 [SID 17387000, 2-phenyl-1,2-benzisothiazol-3(2H)-one] |  |  |  |  |  |  | Reduction in cellular G6P [3]: 29% and 18%; EC50 [4, 14]: 0.03 ± 0.067 µM; EC50 (Leishmania promastigotes; read-out: L. major EC50 (µM)): 1.9 ± 0.2 µM; inhibition at 10 µM [7]: 6.7 ± 9.4%; inhibition at 10 µM [8]: 48 ± 0.15%
C/C(=C/CCC(C)[C@H]1CC[C@@]2(C)C3=C(CC[C@]12C)[C@@]1(C)CCC(=O)C(C)(C)[C@@H]1CC3)C(=O)O (some centres unmarked) [SID 22401406] |  | > 10 | > 12.5 | 0 | 0 | not toxic | IC50 (TbHK1 [2]): 2.3 ± 0.3 µM; % Inhibition of hGlck (10 µM) ([7]; 10 µM compound): minimal impact on the enzyme
Cc1ccccc1-n1sc2cc(F)ccc2c1=O [SID 24785302] | 4.2 ± 1 | 0.042 ± 0.0028 | 1.9 ± 0.2 | 6.9 ± 4.2 | 47 ± 0.15 |  | 
COc1ccc(C(=O)Nc2cc(Cl)ccc2C(=O)O)cc1 [SID 24797131] | 11.4 ± 3.2 | > 10 | > 12.5 | 6.3 ± 8.8 | 0 | not toxic | 
O=c1c2ccccc2sn1-c1nccs1 [SID 24830882] |  |  |  | 88.8 ± 4.9 |  |  | IC50 (TbHK1 [2]): 16.9 ± 0.1 µM; EC50 [4, 14]: 0.83 ± 0.2 µM; EC50 (Leishmania promastigotes; read-out: L. major EC50 (µM)): > 12.5 µM; inhibition at 10 µM [8]: 8.6 ± 0.03%
O=c1c(O)c(-c2cc(O)c(O)c(O)c2)oc2cc(O)cc(O)c12 [myricetin, reference compound] |  |  |  |  |  |  | inhibition at 10 µM (TbHK1 [2]; 10 µM, LOPAC validation screen, duplicate, read-out: Inhibition of TbHK1 enzymatic activity at 10 µM (LOPAC screen)): ≥ 40%
O=c1c(O)c(-c2ccc(O)c(O)c2)oc2cc(O)cc(O)c12 [quercetin] |  |  |  |  |  |  | IC50 (TbHK1 [9]): ~85 µM
